Laboratory results published in patent US7217865B2, “Transgenic high tryptophan plants” (Monsanto Technology LLC, priority 2001, dated 2007).
Read-outs that look alike come from different tables or passages of the source.

Key:
[1] = biological target: Agrobacterium tumefaciens anthranilate synthase (AgroAS), wild type, SEQ ID NO:4 (Agrobacterium fabrum, UniProt A9CI26); assay: Anthranilate synthase enzyme assay and kinetic analysis, wild type; assay type: biochemical
Experimental: (§1) Agrobacterium tumefaciens AS wild type and mutant enzymes were expressed in E. coli as described in Example 1. The purification of all the Agrobacterium tumefaciens AS enzymes, including wild type and mutants therof, was performed at 4° C. The cells (approximate wet weight of 1 g) were suspended in 20 ml of purification buffer (50 mM potassium phosphate, pH […], 10 mM 2-mercaptoethanol, 10% glycerol) and lysed by ultrasonication (Branson sonifier Cell Disruptor, W185). Supernatant was collected after centrifugation of the homogenate at 20,000× g for 15 min. The supernatant was subjected to ammonium sulfate fractionation (30 to 65% saturation). The precipitate was collected after centrifugation at 20,000× g for […] and dissolved in 3 ml of the purification buffer and then loaded as a whole on an Econo-Pac 10DG desalting column, pre-equilibrated with the same buffer. Fractions containing the enzyme were detected by the developed assay and pooled. The pooled enzyme (4.3 mls) was loaded on a 10 ml DEAE Sephacel (Pharmacia Biotech) column (1.5×7.5 cm) equilibrated with the same buffer. The column was washed with 30 ml of the purification buffer and the enzyme was eluted with 30 ml of 50 mM NaCl in the same buffer. Fractions containing high AS activity were pooled and precipitated by 65% ammonium sulfate saturation and isolated and desalted as above. Fractions containing the enzyme were pooled and stored at −80° C.
The standard assay for Agrobacterium tumefaciens AS was performed at 25° C. in an assay buffer containing 100 mM potassium phosphate, pH 7.0, 1 0 mM MgCl2, 1 mM dithiothreitol, 200 μM chorismate and 10 mM L-glutamine. The reaction was started by adding 30 μl of enzyme to the reaction mixture and mixing. The formation of anthranilate was directly monitored by the absorbance increase at […] for 3 min. Initial rate of reaction was calculated as unit absorbance increase per second based on the slope of the absorbance change over the reaction time. Km for chorismate (Km^Cho) was determined in the total volume of 1 ml assay buffer containing 100 mM potassium phosphate, pH 7.0, 10 mM MgCl2, 1 mM dithiothreitol with 10 mM L-glutamine and varying the concentration of chorismate between 2.5–100 μM chorismate. The Km for glutamine (Km^Gln) was determined in the total volume of 1 ml assay buffer containing 100 mM potassium phosphate, pH 7.0, 10 mM MgCl2, 1 mM dithiothreitol with 200 μM chorismate and varying the concentration of L-glutamine between 0.1–2 mM L-glutamine. IC50 for tryptophan (IC50TrP) was determined with in the total volume of 1 ml assay buffer containing 100 mM potassium phosphate, pH 7.0, 10 mM MgCl2, 1 mM dithiothreitol, 10 mM L-glutamine, 200 μM chorismate and varying the concentration of L-tryptophan between 0.1–10 mM L-tryptophan. Kinetic parameters and IC50 of AS were calculated after fitting the data to a non-linear regression program (GraFit).

[2] = biological target: Agrobacterium tumefaciens anthranilate synthase variant S51C, SEQ ID NO:61 (Agrobacterium fabrum, UniProt A9CI26, S51C); assay: Anthranilate synthase enzyme assay and kinetic analysis, S51C mutant; assay type: biochemical
Description: (§2) Site directed mutagenesis was used to generate ten single amino acid substitutions six sites. The mutations were introduced into the Agrobacterium tumefaciens AS in pMON34705 using the QuikChange™ Site-Directed Mutagenesis Kit (Stratagene). The primers used for site directed mutagenesis were SEQ ID NO:9–42 (FIG. 7; F=forward, R=reverse). Each primer sequence is specific for alteration of the nucleic acid at a specific location in the sequence and thus changing the encoded codon to code for a new amino acid. For example, S51C designates a change from serine to cysteine at amino acid position 51 in the Agrobacterium tumefaciens AS peptide sequence.
(§3) Following mutagenesis the sequence of the entire gene was reconfirmed and the variants expressed and purified from E. coli as described below for the wild type enzyme. The resultant plasmids comprising mutant Agrobacterium tumefaciens AS are suitably cloned into a plasmid for overproduction of protein using the T7 expression system as described in Example 1.
as §1
(§4) The standard assay for Agrobacterium tumefaciens AS was performed at 25° C. in an assay buffer containing 100 mM potassium phosphate, pH 7.0, 1 0 mM MgCl2, 1 mM dithiothreitol, 200 μM chorismate and 10 mM L-glutamine. The reaction was started by adding 30 μl of enzyme to the reaction mixture and mixing. The formation of anthranilate was directly monitored by the absorbance increase at […] for 3 min. Initial rate of reaction was calculated as unit absorbance increase per second based on the slope of the absorbance change over the reaction time. Km for chorismate (Km^Cho) was determined in the total volume of 1 ml assay buffer containing 100 mM potassium phosphate, pH 7.0, 10 mM MgCl2, 1 mM dithiothreitol with 10 mM L-glutamine and varying the concentration of chorismate between 2.5–100 μM chorismate. […] Kinetic parameters and IC50 of AS were calculated after fitting the data to a non-linear regression program (GraFit).

[3] = biological target: Agrobacterium tumefaciens anthranilate synthase variant V48Y, SEQ ID NO:59 (Agrobacterium fabrum, UniProt A9CI26, V48Y); assay: Anthranilate synthase enzyme assay and kinetic analysis, V48Y mutant; assay type: biochemical
Description: as §2, §3, §1, §4

[4] = biological target: Agrobacterium tumefaciens anthranilate synthase variant S51F, SEQ ID NO:60 (Agrobacterium fabrum, UniProt A9CI26, S51F); assay: Anthranilate synthase enzyme assay and kinetic analysis, S51F mutant; assay type: biochemical
Description: as §2, §3, §1, §4

[5] = biological target: Agrobacterium tumefaciens anthranilate synthase variant N52F, SEQ ID NO:62 (Agrobacterium fabrum, UniProt A9CI26, N52F); assay: Anthranilate synthase enzyme assay and kinetic analysis, N52F mutant; assay type: biochemical
Description: as §2, §3, §1, §4

[6] = biological target: Agrobacterium tumefaciens anthranilate synthase variant S50K, SEQ ID NO:69 (Agrobacterium fabrum, UniProt A9CI26, S50K); assay: Anthranilate synthase enzyme assay and kinetic analysis, S50K mutant; assay type: biochemical
Description: as §2, §3, §1, §4

[7] = biological target: Agrobacterium tumefaciens anthranilate synthase variant P293G, SEQ ID NO:64 (Agrobacterium fabrum, UniProt A9CI26, P293G); assay: Anthranilate synthase enzyme assay and kinetic analysis, P293G mutant; assay type: biochemical
Description: as §2, §3, §1, §4

[8] = biological target: Agrobacterium tumefaciens anthranilate synthase variant V48F, SEQ ID NO:58 (Agrobacterium fabrum, UniProt A9CI26, V48F); assay: Anthranilate synthase enzyme assay and kinetic analysis, V48F mutant; assay type: biochemical
Description: as §2, §3, §1, §4

[9] = biological target: Agrobacterium tumefaciens anthranilate synthase variant P293A, SEQ ID NO:63 (Agrobacterium fabrum, UniProt A9CI26, P293A); assay: Anthranilate synthase enzyme assay and kinetic analysis, P293A mutant; assay type: biochemical
Description: as §2, §3, §1, §4

NC(=O)CC[C@H](N)C(=O)O [10] = assay: Anthranilate synthase enzyme assay and kinetic analysis, V48F mutant; assay type: biochemical, Agrobacterium tumefaciens; conditions: other: V48F, pH 7.0, 200 μM chorismate, 0.1–2 mM L-glutamine, 25.0 °C
Description: as §2, §3, §1, §4

[11] = test system: C=C(O[C@@H]1C=C(C(=O)O)C=C[C@H]1O)C(=O)O; assay: as above; assay type: biochemical, Agrobacterium tumefaciens; conditions: other: V48F, pH 7.0, 10 mM L-glutamine, 2.5–100 μM chorismate, 25.0 °C
Description: as §2, §3, §1, §4

NC(=O)CC[C@H](N)C(=O)O [12] = assay: Anthranilate synthase enzyme assay and kinetic analysis, V48Y mutant; assay type: biochemical, Agrobacterium tumefaciens; conditions: other: V48Y, pH 7.0, 200 μM chorismate, 0.1–2 mM L-glutamine, 25.0 °C
Description: as §2, §3, §1, §4

[13] = test system: C=C(O[C@@H]1C=C(C(=O)O)C=C[C@H]1O)C(=O)O; assay: as above; assay type: biochemical, Agrobacterium tumefaciens; conditions: other: V48Y, pH 7.0, 10 mM L-glutamine, 2.5–100 μM chorismate, 25.0 °C
Description: as §2, §3, §1, §4

N[C@@H](Cc1c[nH]c2ccccc12)C(=O)O [L-tryptophan]
IC50 [1]: 5 µM
IC50 ([1]; read-out: IC50^trp, wild type, Table J (5-MT resistant clones)): 5 µM
IC50 [2]: 1500 µM
IC50 [3]: 650 µM
IC50 [4]: > 32000 µM
IC50 [5]: 41 µM
IC50 [6]: 0.1 µM
IC50 [7]: 17 µM
IC50 [8]: 150 µM
IC50 [9]: 14 µM

Agrobacterium tumefaciens anthranilate synthase variant V48F, SEQ ID NO:58 (Agrobacterium fabrum str. C58; V48F)
Km (NC(=O)CC[C@H](N)C(=O)O [10]): 80 µM
Km [11]: 4.5 µM
kcat [11]: 0.24 s⁻¹
kcat/Km [11]: 53300 M⁻¹ s⁻¹

Agrobacterium tumefaciens anthranilate synthase variant V48Y, SEQ ID NO:59 (Agrobacterium fabrum str. C58; V48Y)
Km (NC(=O)CC[C@H](N)C(=O)O [12]): 100 µM
Km [13]: 4.2 µM
kcat [13]: 0.18 s⁻¹
kcat/Km [13]: 42800 M⁻¹ s⁻¹
